Laboratory results from ChEMBL document CHEMBL4219180, “Dibenzofuran, dibenzothiophene and N-methyl carbazole tethered 2-aminothiazoles and their cinnamamides as potent inhibitors of Mycobacterium tuberculosis” (Bioorg Med Chem Lett, 2018).
Converted amounts (≈) assume the structure as drawn.

Assays:
[1] = system: Mycobacterium tuberculosis; assay: Antimycobacterial activity against Mycobacterium tuberculosis H37Rv ATCC 27294 after 28 days by agar dilution method; type: functional; conditions: H37Rv ATCC 27294, 672 h
[2] = Growth inhibition of HEK293T cells at 50 ug/ml after 72 hrs by MTT assay; type: cell-based, HEK-293T; conditions: human, read-out: GI
[3] = system: Mycobacterium tuberculosis; assay: Antimycobacterial activity against Mycobacterium tuberculosis; type: functional

SMILES | MIC [1] [µg/mL] | inhibition at 72 h, 50 ug/ml [2] [%] | MIC [3] [µg/mL]
CC(C)c1ccc(/C=C/C(=O)Nc2nc(-c3ccc4oc5ccccc5c4c3)cs2)cc1 | 6.25 (≈ 14.3 µM) | 42.2 | 
O=C(/C=C/c1ccccc1)Nc1nc(-c2ccc3sc4ccccc4c3c2)cs1 | 50 (≈ 121 µM) | 68.6 | 
Cn1c2ccccc2c2cc(-c3csc(N)n3)ccc21 | 12.5 (≈ 44.7 µM) | 38.1 | 
O=C(/C=C/c1ccc(Br)cc1)Nc1nc(-c2ccc3sc4ccccc4c3c2)cs1 | 6.25 (≈ 12.7 µM) | 28.3 | 
Cn1c2ccccc2c2cc(-c3csc(NC(=O)/C=C/c4ccccc4)n3)ccc21 | 50 (≈ 122 µM) | 14.3 | 
O=C(/C=C/c1ccc(F)cc1)Nc1nc(-c2ccc3oc4ccccc4c3c2)cs1 | 50 (≈ 121 µM) | 36.8 | 
Nc1nc(-c2ccc3sc4ccccc4c3c2)cs1 | 1.56 (≈ 5.52 µM) | 56.7 | 
Cc1ccc(/C=C/C(=O)Nc2nc(-c3ccc4c(c3)c3ccccc3n4C)cs2)cc1 | 25 (≈ 59 µM) | 19.4 | 
O=C(/C=C/c1ccccc1)Nc1nc(-c2ccc3oc4ccccc4c3c2)cs1 | 50 (≈ 126 µM) | 52.6 | 
CC(C)c1ccc(/C=C/C(=O)Nc2nc(-c3ccc4sc5ccccc5c4c3)cs2)cc1 | 0.78 (≈ 1.72 µM) | 43.1 | 
Cc1ccc(/C=C/C(=O)Nc2nc(-c3ccc4oc5ccccc5c4c3)cs2)cc1 | 50 (≈ 122 µM) | 51.3 | 
O=C(/C=C/c1ccc(Br)cc1)Nc1nc(-c2ccc3oc4ccccc4c3c2)cs1 | 12.5 (≈ 26.3 µM) | 68.6 | 
Cn1c2ccccc2c2cc(-c3csc(NC(=O)/C=C/c4ccc(F)cc4)n3)ccc21 | 50 (≈ 117 µM) | 23.8 | 
Nc1nc(-c2ccc3oc4ccccc4c3c2)cs1 | 1.56 (≈ 5.86 µM) | 48.1 | 
CC[C@@H](CO)NCCN[C@@H](CC)CO [ETHAMBUTOL] | 3.13 (≈ 15.3 µM) |  | 
Cc1ccc(/C=C/C(=O)Nc2nc(-c3ccc4sc5ccccc5c4c3)cs2)cc1 | 50 (≈ 117 µM) | 48 | 
CC(C)c1ccc(/C=C/C(=O)Nc2nc(-c3ccc4c(c3)c3ccccc3n4C)cs2)cc1 | 50 (≈ 111 µM) | 62 | 
NC(=O)c1cnccn1 [PYRAZINAMIDE] | 50 (≈ 406 µM) |  | 
NNC(=O)c1ccncc1 [ISONIAZID] | 0.1 (≈ 0.729 µM) |  | 
O=C(/C=C/c1ccc(F)cc1)Nc1nc(-c2ccc3sc4ccccc4c3c2)cs1 | 0.78 (≈ 1.81 µM) | 57.2 | 
Cn1c2ccccc2c2cc(-c3csc(NC(=O)/C=C/c4ccc(Br)cc4)n3)ccc21 | 0.78 (≈ 1.6 µM) | 12.1 | 
CC(=O)C1=C(O)C=C2Oc3c(C(C)=O)c(O)c(C)c(O)c3C2(C)C1=O (stereo not given) |  |  | 12.5 (≈ 36.3 µM)
